Reference: the supplement of paper PMC10307832

Columns and labels:
Assay in all cases: relative viability (nuclei count vs DMSO), 5 days (fraction); higher = more cells survive
[1] = compound: C1CC(C2=C(C1)C3=C(N2)C=CC(=C3)Cl)C(=O)N [Selisistat] + CCNC(=O)c1noc(-c2cc(C(C)C)c(O)cc2O)c1-c1ccc(CN2CCOCC2)cc1 [Luminespib] (partner 0.01 µM)
Procedure, shortened: (§1)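 Nuclei were stained with Hoechst during a one-step fixation (final 0.05% Triton X-100, 1% formaldehyde, 1 ug/ml Hoechst) carried out 5 days after dosing, then counted on 4× images. The cells, lung cancer lines in 1536-well plates, had been dosed by pin tool the day after seeding with one drug alone or a fixed anchor-drug dose plus five library-drug doses (not always all listed) in √10 steps. Relative viability is the nuclei count in treated wells divided by that in vehicle wells, and each value is the median of duplicate plates.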

[2] = compound: C1CC(C2=C(C1)C3=C(N2)C=CC(=C3)Cl)C(=O)N [Selisistat] + C[C@@H](Oc1cc(-c2cnn(C3CCNCC3)c2)cnc1N)c1c(Cl)ccc(F)c1Cl [Crizotinib] (partner 1 µM)
Procedure, shortened: as §1

[3] = compound: C1CC(C2=C(C1)C3=C(N2)C=CC(=C3)Cl)C(=O)N [Selisistat] + Nc1nc2[nH]cc(CCc3ccc(C(=O)N[C@@H](CCC(=O)O)C(=O)O)cc3)c2c(=O)[nH]1 [Pemetrexed] (partner 0.2 µM)
Procedure, shortened: as §1

[4] = compound: c1ccc2c(CCNc3ccc(Nc4ccncc4)cc3)c[nH]c2c1 [Serdemetan] + COc1cccc2cc(-c3nc([C@H]4CC[C@H](C(=O)O)CC4)n4ncnc(N)c34)[nH]c12 [OSI-027] (partner 0.5 µM)
Procedure, shortened: as §1

Cell Line | relative viability ([1]; first compound 0.4 µM) | relative viability ([1]; first compound 1.265 µM) | relative viability ([1]; first compound 4 µM) | relative viability ([1]; first compound 12.65 µM) | relative viability ([1]; first compound 40 µM) | relative viability ([2]; first compound 0.4 µM) | relative viability ([2]; first compound 1.265 µM) | relative viability ([2]; first compound 4 µM) | relative viability ([2]; first compound 12.65 µM) | relative viability ([2]; first compound 40 µM) | relative viability ([3]; first compound 0.4 µM) | relative viability ([3]; first compound 1.265 µM) | relative viability ([3]; first compound 4 µM) | relative viability ([3]; first compound 12.65 µM) | relative viability ([3]; first compound 40 µM) | relative viability ([4]; first compound 0.04 µM) | relative viability ([4]; first compound 0.1265 µM) | relative viability ([4]; first compound 0.4 µM) | relative viability ([4]; first compound 4 µM) | relative viability ([4]; first compound 1.265 µM)
201T | 1.14 | 1.12 | 0.983 | 1.04 | 1.01 | 1.04 | 1.03 | 0.986 | 1.02 | 1.01 | 0.325 | 0.299 | 0.364 | 0.343 | 0.324 | 0.584 | 0.676 | 0.76 | 0.664 | 
A549 |  |  |  |  |  | 0.716 | 0.742 | 0.698 | 0.709 | 0.728 |  |  |  |  |  |  |  |  |  | 
A-427 | 0.882 | 0.729 | 0.881 | 0.977 | 0.949 | 0.874 | 0.819 | 0.841 | 0.917 | 0.921 | 0.996 | 1.04 |  | 1.07 | 0.988 | 0.526 | 0.509 | 0.539 | 0.36 | 0.455
ABC-1 | 0.477 | 0.483 |  |  | 0.627 | 1.01 | 1.19 | 1.1 | 0.933 | 0.881 |  |  |  |  |  | 0.459 | 0.488 | 0.486 | 0.265 | 0.296
BEN | 0.429 | 0.242 | 0.33 | 0.207 | 0.383 | 0.843 | 0.76 | 0.748 | 0.72 | 0.863 | 0.876 | 0.614 | 0.532 | 0.698 | 0.68 | 0.307 | 0.292 | 0.272 | 0.286 | 
CAL-12T | 0.546 | 0.326 | 0.275 | 0.784 | 0.401 | 0.668 | 0.518 | 0.795 | 0.626 | 0.422 | 1.29 | 1.25 | 1.3 | 1.12 | 1.23 | 0.827 | 0.638 | 0.653 | 0.518 | 0.579
COR-L23 | 0.709 | 0.715 | 0.641 | 0.655 | 0.61 | 0.621 | 0.664 | 0.635 | 0.537 | 0.581 | 0.182 | 0.212 | 0.193 | 0.19 | 0.2 | 0.796 | 0.712 | 0.799 | 0.744 | 0.658
COR-L 105 | 0.464 | 0.608 |  | 0.909 | 0.775 | 0.716 | 0.786 | 0.748 | 0.745 | 0.741 | 1.16 | 1.07 | 1.16 | 0.869 | 1.1 | 0.749 | 0.649 | 0.452 | 0.71 | 0.722
Calu-6 |  |  |  |  |  | 0.778 | 0.602 | 0.764 | 0.682 | 0.633 |  |  |  |  |  |  |  |  |  | 
ChaGo-K-1 | 0.586 | 0.581 | 0.648 | 0.526 | 0.61 | 1.15 | 1.04 |  | 1.08 | 1.09 | 0.237 | 0.247 | 0.257 | 0.36 | 0.231 | 0.546 | 0.611 | 0.539 | 0.367 | 0.33
EBC-1 |  |  |  |  |  | 0.2 | 0.19 | 0.191 | 0.169 | 0.184 |  |  |  |  |  |  |  |  |  | 
EKVX | 0.844 | 0.894 | 0.814 | 0.934 | 0.877 | 0.964 | 0.925 | 1.01 | 0.896 | 0.983 | 0.348 | 0.314 | 0.361 | 0.342 | 0.404 | 0.731 | 0.708 | 0.671 | 0.588 | 
EMC-BAC-2 | 1.12 | 1.07 | 1.14 | 1.17 | 1.08 | 0.78 | 0.74 | 0.742 | 0.582 | 0.755 | 0.406 | 0.422 | 0.522 | 0.331 | 0.352 | 0.368 | 0.383 | 0.392 | 0.355 | 0.268
EPLC-272H | 0.213 | 0.409 |  | 0.32 | 0.197 | 0.941 | 0.865 |  | 0.915 | 0.992 | 0.257 | 0.315 | 0.317 | 0.336 | 0.284 | 0.285 | 0.355 | 0.296 | 0.272 | 0.248
H3255 | 0.807 | 0.79 | 0.948 | 0.773 | 0.819 | 0.899 | 0.769 | 0.926 | 0.899 | 0.734 | 0.556 | 0.556 | 0.528 | 0.552 | 0.526 | 0.587 | 0.675 | 0.613 | 0.518 | 0.573
HARA | 0.909 | 1.02 | 0.846 | 0.584 | 1.04 | 0.95 | 1.01 | 1 | 1 | 0.981 | 0.266 | 0.27 |  | 0.303 | 0.215 | 0.528 | 0.703 | 0.395 | 0.304 | 0.274
HCC-15 | 0.329 | 0.205 |  | 0.373 | 0.319 | 0.913 | 0.866 |  | 0.782 | 0.813 | 0.241 | 0.222 |  | 0.23 | 0.213 | 0.643 | 0.75 | 0.624 | 0.522 | 0.452
HCC-44 | 1.05 |  |  | 1.12 | 1.16 | 0.804 | 0.788 | 0.957 | 0.871 | 0.801 | 0.681 | 0.675 | 0.655 | 0.685 | 0.691 | 0.482 | 0.498 | 0.598 | 0.452 | 0.429
HCC-78 |  |  |  |  |  | 0.341 | 0.304 | 0.3 | 0.307 | 0.345 | 0.917 | 0.949 | 0.924 | 0.774 | 0.878 | 0.401 | 0.297 | 0.321 | 0.289 | 0.308
HCC-366 |  |  |  |  |  | 0.58 | 0.681 | 0.4 | 0.521 | 0.562 | 0.136 | 0.184 | 0.193 | 0.146 | 0.164 | 0.87 | 0.858 | 0.733 | 0.122 | 0.173
